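Tested at 5 concentrations; 48 h exposure; 96-well plates; endpoints linearly interpolated, else capped at highest concentration. GI50: concentration for 50% inhibition of growth. Definition used: TGI = concentration required for complete inhibition of growth.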
Tests used:
Experiment in all cases: inhibition of tumour cell growth, NCI panel, 48 h
MALME-3M melanoma = tested on: MALME-3M melanoma
EKVX NSCLC = tested on: EKVX NSCLC
MDA-MB-231 breast = tested on: MDA-MB-231 breast
CCRF-CEM leukemia = tested on: CCRF-CEM leukemia
U251 CNS = tested on: U251 CNS
HCT-15 colon = tested on: HCT-15 colon
OVCAR-4 ovarian = tested on: OVCAR-4 ovarian
HT29 colon = tested on: HT29 colon
SF-295 CNS = tested on: SF-295 CNS
K-562 leukemia = tested on: K-562 leukemia
MDA-MB-435 = tested on: MDA-MB-435
786-0 renal = tested on: 786-0 renal
IGROV1 ovarian = tested on: IGROV1 ovarian
M14 melanoma = tested on: M14 melanoma
SK-MEL-28 melanoma = tested on: SK-MEL-28 melanoma
HS 578T breast = tested on: HS 578T breast
TK-10 renal = tested on: TK-10 renal
MCF7 breast = tested on: MCF7 breast
SW-620 colon = tested on: SW-620 colon
PC-3 prostate = tested on: PC-3 prostate
RPMI-8226 leukemia = tested on: RPMI-8226 leukemia
SK-MEL-5 melanoma = tested on: SK-MEL-5 melanoma
SNB-19 CNS = tested on: SNB-19 CNS
COLO 205 colon = tested on: COLO 205 colon
DU-145 prostate = tested on: DU-145 prostate
OVCAR-5 ovarian = tested on: OVCAR-5 ovarian
BT-549 breast = tested on: BT-549 breast
NCI-H460 lung = tested on: NCI-H460 lung
HOP-62 NSCLC = tested on: HOP-62 NSCLC
NCI/ADR-RES ovarian = tested on: NCI/ADR-RES ovarian
UO-31 renal = tested on: UO-31 renal
HL-60(TB) leukemia = tested on: HL-60(TB) leukemia
SK-OV-3 ovarian = tested on: SK-OV-3 ovarian
SF-539 CNS = tested on: SF-539 CNS
SNB-75 CNS = tested on: SNB-75 CNS
SF-268 CNS = tested on: SF-268 CNS
NCI-H522 lung = tested on: NCI-H522 lung
UACC-257 melanoma = tested on: UACC-257 melanoma
CAKI-1 renal = tested on: CAKI-1 renal
LOX IMVI melanoma = tested on: LOX IMVI melanoma
MOLT-4 leukemia = tested on: MOLT-4 leukemia
T-47D breast = tested on: T-47D breast
SN12C renal = tested on: SN12C renal
A549 NSCLC = tested on: A549 NSCLC
HOP-92 NSCLC = tested on: HOP-92 NSCLC
KM12 colon = tested on: KM12 colon
NCI-H23 lung = tested on: NCI-H23 lung
OVCAR-8 ovarian = tested on: OVCAR-8 ovarian
A498 renal = tested on: A498 renal
HCT-116 colon = tested on: HCT-116 colon
NCI-H226 lung = tested on: NCI-H226 lung
HCC-2998 colon = tested on: HCC-2998 colon

**Q.** Which results are given for `C#C[C@]1(O)CC[C@H]2[C@@H]3CC=C4c5sc(Nc6ccc(OC)nc6)nc5CC[C@]4(C)[C@H]3CC[C@@]21C`?
**A.** GI50 (MALME-3M melanoma): 1540 nM; TGI (MALME-3M melanoma): 3210 nM; GI50 (EKVX NSCLC): 1600 nM; TGI (EKVX NSCLC): 21300 nM; GI50 (MDA-MB-231 breast): 1710 nM; TGI (MDA-MB-231 breast): 9340 nM; GI50 (CCRF-CEM leukemia): 805 nM; TGI (CCRF-CEM leukemia): 6240 nM; GI50 (U251 CNS): 654 nM; TGI (U251 CNS): 2810 nM; GI50 (HCT-15 colon): 1070 nM; TGI (HCT-15 colon): 8280 nM; GI50 (OVCAR-4 ovarian): 3510 nM; TGI (OVCAR-4 ovarian): > 100000 nM; GI50 (HT29 colon): 1310 nM; TGI (HT29 colon): 3240 nM; GI50 (SF-295 CNS): 302 nM; TGI (SF-295 CNS): 1230 nM; GI50 (K-562 leukemia): 907 nM; TGI (K-562 leukemia): 12800 nM; GI50 (MDA-MB-435): 1840 nM; TGI (MDA-MB-435): 4900 nM; GI50 (786-0 renal): 413 nM; TGI (786-0 renal): 1970 nM; GI50 (IGROV1 ovarian): 2040 nM; TGI (IGROV1 ovarian): 7400 nM; GI50 (M14 melanoma): 1470 nM; TGI (M14 melanoma): 3470 nM; GI50 (SK-MEL-28 melanoma): 1500 nM; TGI (SK-MEL-28 melanoma): 3720 nM; GI50 (HS 578T breast): 231 nM; TGI (HS 578T breast): 1610 nM; GI50 (TK-10 renal): 2280 nM; TGI (TK-10 renal): 4810 nM; GI50 (MCF7 breast): 789 nM; TGI (MCF7 breast): 2540 nM; GI50 (SW-620 colon): 1490 nM; TGI (SW-620 colon): 3400 nM; GI50 (PC-3 prostate): 739 nM; TGI (PC-3 prostate): 4920 nM; GI50 (RPMI-8226 leukemia): 222 nM; TGI (RPMI-8226 leukemia): 1190 nM; GI50 (SK-MEL-5 melanoma): 1930 nM; TGI (SK-MEL-5 melanoma): 4540 nM; GI50 (SNB-19 CNS): 1360 nM; TGI (SNB-19 CNS): 68800 nM; GI50 (COLO 205 colon): 1780 nM; TGI (COLO 205 colon): 3370 nM; GI50 (DU-145 prostate): 2010 nM; TGI (DU-145 prostate): 10000 nM; GI50 (OVCAR-5 ovarian): 2490 nM; TGI (OVCAR-5 ovarian): 15100 nM; GI50 (BT-549 breast): 944 nM; TGI (BT-549 breast): 2890 nM; GI50 (NCI-H460 lung): 1920 nM; TGI (NCI-H460 lung): 5890 nM; GI50 (HOP-62 NSCLC): 1660 nM; TGI (HOP-62 NSCLC): 8800 nM; GI50 (NCI/ADR-RES ovarian): 2360 nM; TGI (NCI/ADR-RES ovarian): > 100000 nM; GI50 (UO-31 renal): 830 nM; TGI (UO-31 renal): 2130 nM; GI50 (HL-60(TB) leukemia): 493 nM; TGI (HL-60(TB) leukemia): 3710 nM; GI50 (SK-OV-3 ovarian): 1260 nM; TGI (SK-OV-3 ovarian): 6160 nM; GI50 (SF-539 CNS): 366 nM; TGI (SF-539 CNS): 2150 nM; GI50 (SNB-75 CNS): 370 nM; TGI (SNB-75 CNS): 3900 nM; GI50 (SF-268 CNS): 2010 nM; TGI (SF-268 CNS): 17400 nM; GI50 (NCI-H522 lung): 1430 nM; TGI (NCI-H522 lung): 3020 nM; GI50 (UACC-257 melanoma): 1550 nM; TGI (UACC-257 melanoma): 3180 nM; GI50 (CAKI-1 renal): 1280 nM; TGI (CAKI-1 renal): 3760 nM; GI50 (LOX IMVI melanoma): 1150 nM; TGI (LOX IMVI melanoma): 2790 nM; GI50 (MOLT-4 leukemia): 390 nM; TGI (MOLT-4 leukemia): 2410 nM; GI50 (T-47D breast): 1470 nM; TGI (T-47D breast): 3780 nM; GI50 (SN12C renal): 2220 nM; TGI (SN12C renal): 7610 nM; GI50 (A549 NSCLC): 2200 nM; TGI (A549 NSCLC): 18000 nM; GI50 (HOP-92 NSCLC): 1030 nM; TGI (HOP-92 NSCLC): 2950 nM; GI50 (KM12 colon): 2100 nM; TGI (KM12 colon): 12200 nM; GI50 (NCI-H23 lung): 1650 nM; TGI (NCI-H23 lung): 4470 nM; GI50 (OVCAR-8 ovarian): 1800 nM; TGI (OVCAR-8 ovarian): 5460 nM; GI50 (A498 renal): 769 nM; TGI (A498 renal): 5880 nM; GI50 (HCT-116 colon): 1130 nM; TGI (HCT-116 colon): 2490 nM; GI50 (NCI-H226 lung): 2020 nM; TGI (NCI-H226 lung): 13400 nM; GI50 (HCC-2998 colon): 1700 nM; TGI (HCC-2998 colon): 3810 nM

From PubChem BioAssay (NCI)
